Test results from PubChem BioAssay AID2060615 (Molecular Pharmacology Branch, DTP, NCI, 2025).

Tested on: 496974-208-R-J2-PDC complex spheroids, growth % test/control
Assay: Anticancer human tumor 496974-208-R-J2-PDC patient-derived pancreatic carcinoma cell line growth inhibition [CLK]
Conditions: for IC50: curve of first compound; for viability, T/C: stronger effect = lower value
Method in brief: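 Patient-derived tumor cells grown as complex spheroids with HUVEC endothelial cells and mesenchymal stem cells, treated with drug combinations. Concentrations descend in half-log steps from near clinical Cmax, or from 10 microM if Cmax unknown.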
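Further: spheroids exposed to the drugs for 7 days before readout.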
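Wherever viability, T/C is given: 100% = DMSO vehicle control wells.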

C=CC(=O)Nc1cc(Nc2nccc(-c3cn(C)c4ccccc34)n2)c(OC)cc1N(C)CCN(C)C + CNC(=O)c1ccc(Nc2nc(OC3CCCC3)c3c(-c4ccc5nc(C)oc5c4)c[nH]c3n2)c(OC)c1
IC50 (second compound 0.0316 µM): > 0.3 µM | IC50 (second compound 0.1 µM): > 0.3 µM | IC50 (second compound 0.316 µM): > 0.3 µM | IC50 (second compound 1 µM): 0.152 µM | IC50 (second compound 3.16 µM): 0.122 µM | IC50 (second compound 10 µM): 0.0758 µM | viability, T/C (second compound 0.0316 µM, first compound 0.000949 µM): 108% | viability, T/C (second compound 0.0316 µM, first compound 0.003 µM): 99.3% | viability, T/C (second compound 0.0316 µM, first compound 0.00949 µM): 88% | viability, T/C (second compound 0.0316 µM, first compound 0.03 µM): 96.5% | viability, T/C (second compound 0.0316 µM, first compound 0.0949 µM): 90.2% | viability, T/C (second compound 0.0316 µM, first compound 0.3 µM): 71.7% | viability, T/C (second compound 0.1 µM, first compound 0.000949 µM): 80.6% | viability, T/C (second compound 0.1 µM, first compound 0.003 µM): 89.5% | viability, T/C (second compound 0.1 µM, first compound 0.00949 µM): 67.1% | viability, T/C (second compound 0.1 µM, first compound 0.03 µM): 72.8% | viability, T/C (second compound 0.1 µM, first compound 0.0949 µM): 70% | viability, T/C (second compound 0.1 µM, first compound 0.3 µM): 53.1% | viability, T/C (second compound 0.316 µM, first compound 0.000949 µM): 81.1% | viability, T/C (second compound 0.316 µM, first compound 0.003 µM): 77.4% | viability, T/C (second compound 0.316 µM, first compound 0.00949 µM): 85.2% | viability, T/C (second compound 0.316 µM, first compound 0.03 µM): 74.5% | viability, T/C (second compound 0.316 µM, first compound 0.0949 µM): 60.4% | viability, T/C (second compound 0.316 µM, first compound 0.3 µM): 51.2% | viability, T/C (second compound 1 µM, first compound 0.000949 µM): 76.7% | viability, T/C (second compound 1 µM, first compound 0.003 µM): 70.2% | viability, T/C (second compound 1 µM, first compound 0.00949 µM): 66% | viability, T/C (second compound 1 µM, first compound 0.03 µM): 65.1% | viability, T/C (second compound 1 µM, first compound 0.0949 µM): 57.2% | viability, T/C (second compound 1 µM, first compound 0.3 µM): 40.9% | viability, T/C (second compound 3.16 µM, first compound 0.000949 µM): 63.4% | viability, T/C (second compound 3.16 µM, first compound 0.003 µM): 64.1% | viability, T/C (second compound 3.16 µM, first compound 0.00949 µM): 65.6% | viability, T/C (second compound 3.16 µM, first compound 0.03 µM): 57.8% | viability, T/C (second compound 3.16 µM, first compound 0.0949 µM): 51.7% | viability, T/C (second compound 3.16 µM, first compound 0.3 µM): 41.1% | viability, T/C (second compound 10 µM, first compound 0.000949 µM): 60.3% | viability, T/C (second compound 10 µM, first compound 0.003 µM): 57.9% | viability, T/C (second compound 10 µM, first compound 0.00949 µM): 57.5% | viability, T/C (second compound 10 µM, first compound 0.03 µM): 51.3% | viability, T/C (second compound 10 µM, first compound 0.0949 µM): 51.4% | viability, T/C (second compound 10 µM, first compound 0.3 µM): 30.4%

COc1ccc([C@@H](O)c2cc(-c3ncnc4cc(N5CCOCC5)ccc34)c(F)cc2Cl)nn1 + CNC(=O)c1ccc(Nc2nc(OC3CCCC3)c3c(-c4ccc5nc(C)oc5c4)c[nH]c3n2)c(OC)c1
IC50 (second compound 0.0316 µM): 7.28 µM | IC50 (second compound 0.1 µM): 6.16 µM | IC50 (second compound 0.316 µM): 2.6 µM | IC50 (second compound 1 µM): 1.71 µM | IC50 (second compound 3.16 µM): 1.36 µM | IC50 (second compound 10 µM): 0.306 µM | viability, T/C (second compound 0.0316 µM, first compound 0.0316 µM): 102% | viability, T/C (second compound 0.0316 µM, first compound 0.1 µM): 88.6% | viability, T/C (second compound 0.0316 µM, first compound 0.316 µM): 89.4% | viability, T/C (second compound 0.0316 µM, first compound 1 µM): 88.7% | viability, T/C (second compound 0.0316 µM, first compound 3.16 µM): 76.1% | viability, T/C (second compound 0.0316 µM, first compound 10 µM): 40.1% | viability, T/C (second compound 0.1 µM, first compound 0.0316 µM): 78.5% | viability, T/C (second compound 0.1 µM, first compound 0.1 µM): 75.8% | viability, T/C (second compound 0.1 µM, first compound 0.316 µM): 83.9% | viability, T/C (second compound 0.1 µM, first compound 1 µM): 75.9% | viability, T/C (second compound 0.1 µM, first compound 3.16 µM): 62.3% | viability, T/C (second compound 0.1 µM, first compound 10 µM): 41.1% | viability, T/C (second compound 0.316 µM, first compound 0.0316 µM): 71% | viability, T/C (second compound 0.316 µM, first compound 0.1 µM): 85.1% | viability, T/C (second compound 0.316 µM, first compound 0.316 µM): 68.9% | viability, T/C (second compound 0.316 µM, first compound 1 µM): 67.1% | viability, T/C (second compound 0.316 µM, first compound 3.16 µM): 46.5% | viability, T/C (second compound 0.316 µM, first compound 10 µM): 20.4% | viability, T/C (second compound 1 µM, first compound 0.0316 µM): 72% | viability, T/C (second compound 1 µM, first compound 0.1 µM): 64.2% | viability, T/C (second compound 1 µM, first compound 0.316 µM): 65.1% | viability, T/C (second compound 1 µM, first compound 1 µM): 58.1% | viability, T/C (second compound 1 µM, first compound 3.16 µM): 41.6% | viability, T/C (second compound 1 µM, first compound 10 µM): 23.2% | viability, T/C (second compound 3.16 µM, first compound 0.0316 µM): 62.9% | viability, T/C (second compound 3.16 µM, first compound 0.1 µM): 68% | viability, T/C (second compound 3.16 µM, first compound 0.316 µM): 59.5% | viability, T/C (second compound 3.16 µM, first compound 1 µM): 56.3% | viability, T/C (second compound 3.16 µM, first compound 3.16 µM): 35.6% | viability, T/C (second compound 3.16 µM, first compound 10 µM): 17.9% | viability, T/C (second compound 10 µM, first compound 0.0316 µM): 59.7% | viability, T/C (second compound 10 µM, first compound 0.1 µM): 55.8% | viability, T/C (second compound 10 µM, first compound 0.316 µM): 50.2% | viability, T/C (second compound 10 µM, first compound 1 µM): 42.9% | viability, T/C (second compound 10 µM, first compound 3.16 µM): 27.3% | viability, T/C (second compound 10 µM, first compound 10 µM): 14.2%
